Measurements as given in patent publication US7863449B2, “Modulators of muscarinic receptors” (Vertex Pharmaceuticals Incorporated, priority 2004, dated 2011).
Counter-ions that a name gives are not always drawn.

Assays:
M1 muscarinic receptor = target: T1, M1 muscarinic receptor (Homo sapiens, UniProt P11229); experiment: Functional mobilization of intracellular calcium (FLIPR), M1-CHO cells; assay type: cell-based; details: for Emax: 100% efficacy is the maximum response obtained using Carbachol as a control; for M1 Activity: M1-CHO cells, FLIPR calcium mobilization
T1 construct: expressed in transfected cells; host or cells: CHO (M1-CHO)
T1 sequence (P11229 1-460): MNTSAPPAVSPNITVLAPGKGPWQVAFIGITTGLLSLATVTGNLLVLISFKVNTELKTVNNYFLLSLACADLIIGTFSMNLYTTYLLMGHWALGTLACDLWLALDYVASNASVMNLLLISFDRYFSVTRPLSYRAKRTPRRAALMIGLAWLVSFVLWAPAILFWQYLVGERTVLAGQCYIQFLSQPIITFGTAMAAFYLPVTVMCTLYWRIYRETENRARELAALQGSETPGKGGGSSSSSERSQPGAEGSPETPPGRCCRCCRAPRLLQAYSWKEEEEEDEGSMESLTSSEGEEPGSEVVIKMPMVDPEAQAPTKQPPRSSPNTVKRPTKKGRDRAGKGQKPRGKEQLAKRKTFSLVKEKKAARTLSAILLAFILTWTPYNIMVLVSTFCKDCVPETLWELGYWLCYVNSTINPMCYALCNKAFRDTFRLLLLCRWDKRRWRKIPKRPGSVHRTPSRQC
Method in brief: (§1)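 CHO cells expressing M1 or M4, loaded with Fluo-3 AM or Calcium 3 dye with 1 mM probenecid, 0.5% DMSO final. Agonist mode: compound added directly; antagonist mode: 15 min pre-incubation (or co-application) before carbachol at EC80. Fluorescence recorded 60 s on FLIPR.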

M4 muscarinic receptor = target: T2, M4 muscarinic receptor (Homo sapiens, UniProt P08173); experiment: Functional mobilization of intracellular calcium (FLIPR), M4-CHO cells; assay type: cell-based; details: for Emax: 100% efficacy is the maximum response obtained using Carbachol as a control; for M4 Activity: M4-CHO cells, FLIPR calcium mobilization
T2 construct: expressed in transfected cells; host or cells: CHO (M4-CHO)
T2 sequence (P08173 1-479): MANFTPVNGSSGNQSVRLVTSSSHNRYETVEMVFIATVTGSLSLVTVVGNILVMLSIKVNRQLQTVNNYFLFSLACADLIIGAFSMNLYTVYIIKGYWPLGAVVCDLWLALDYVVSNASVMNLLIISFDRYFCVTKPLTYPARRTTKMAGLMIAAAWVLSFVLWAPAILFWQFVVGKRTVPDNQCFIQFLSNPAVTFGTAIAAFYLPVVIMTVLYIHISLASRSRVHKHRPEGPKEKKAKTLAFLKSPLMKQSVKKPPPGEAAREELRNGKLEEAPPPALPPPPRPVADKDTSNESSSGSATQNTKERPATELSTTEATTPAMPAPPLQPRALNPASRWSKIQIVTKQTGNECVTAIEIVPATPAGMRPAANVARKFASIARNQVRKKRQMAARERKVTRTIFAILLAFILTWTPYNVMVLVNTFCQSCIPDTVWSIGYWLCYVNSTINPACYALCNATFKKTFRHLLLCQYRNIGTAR
Method in brief: as §1

SMILES | Emax (M1 muscarinic receptor) | M1 Activity (M1 muscarinic receptor) | Emax (M4 muscarinic receptor) | M4 Activity (M4 muscarinic receptor)
CCOC(=O)N1CCC(CN2CCC3(CC2)CN(C(=O)c2snnc2C)Cc2ccccc23)CC1 [compound 143] | 25 to 100% | +++ (activity was measured to be less than 1.0 μM) | 25 to 100% | +++ (activity was measured to be less than 1.0 μM)
CC(=O)c1ccc(CN2CCC3(CC2)CN(C(C)=O)Cc2ccccc23)cc1 [compound 144] | 25 to 100% | + (activity was measured to be greater than 5.0 μM) | < 25% | + (activity was measured to be greater than 5.0 μM)
CCOC(=O)N1CCC(CN2CCC3(CC2)OC(=O)c2ccc(C)cc23)CC1 [compound 145] | 25 to 100% | +++ (activity was measured to be less than 1.0 μM) | 25 to 100% | +++ (activity was measured to be less than 1.0 μM)
CCOC(=O)N1C2CCC1CC(N1CCC3(CC1)CN(C(=O)c1cccs1)Cc1ccccc13)C2 (stereo not shown) [compound 146] | 25 to 100% | +++ (activity was measured to be less than 1.0 μM) | 25 to 100% | +++ (activity was measured to be less than 1.0 μM)
CCOC(=O)N1CCC(CN2CCC3(CC2)CN(C(=O)c2ccccc2)Cc2ccccc23)CC1 [compound 147, Ethyl 4-((2-benzoyl-2,3-dihydro-1H-spiro[isoquinoline-4,4′-piperidine]-1′-yl)methyl)piperidine-1-carboxylate hydrochloride] | 25 to 100% | +++ (activity was measured to be less than 1.0 μM) | 25 to 100% | +++ (activity was measured to be less than 1.0 μM)
CCCCOC(=O)N1Cc2ccccc2C2(CCN(C3CC4CCC(C3)N4C(=O)OCC)CC2)C1 (stereo not shown) [compound 148] | 25 to 100% | +++ (activity was measured to be less than 1.0 μM) | 25 to 100% | +++ (activity was measured to be less than 1.0 μM)
CCOC(=O)N1C2CCC1CC(N1CCC3(CC1)CN(C(=O)c1cc(C)oc1C)Cc1ccccc13)C2 (stereo not shown) [compound 149] | < 25% | + (activity was measured to be greater than 5.0 μM) | 25 to 100% | +++ (activity was measured to be less than 1.0 μM)
COc1ccccc1CN1CCC2(CC1)CN(C(C)=O)Cc1ccccc12 [compound 150] | < 25% | + (activity was measured to be greater than 5.0 μM) | < 25% | + (activity was measured to be greater than 5.0 μM)
CCOC(=O)N1CCC(N2CCC3(CC2)CN(C(=O)c2ccccn2)Cc2ccccc23)CC1 [compound 151] | 25 to 100% | +++ (activity was measured to be less than 1.0 μM) | 25 to 100% | +++ (activity was measured to be less than 1.0 μM)
CC(=O)N1Cc2ccccc2C2(CCN(Cc3ccccc3Cl)CC2)C1 [compound 152] | < 25% | + (activity was measured to be greater than 5.0 μM) | 25 to 100% | ++ (activity was measured to be from 1.0 μM to 5.0 μM)
CC(=O)N1Cc2ccccc2C2(CCN(C3CCC(=O)CC3)CC2)C1 [compound 153] | 25 to 100% | + (activity was measured to be greater than 5.0 μM) | 25 to 100% | ++ (activity was measured to be from 1.0 μM to 5.0 μM)
CC(C)OC(=O)N1C2CCC1CC(N1CCC3(CC1)CN(S(C)(=O)=O)Cc1ccccc13)C2 (stereo not shown) [compound 154] | 25 to 100% | +++ (activity was measured to be less than 1.0 μM) | 25 to 100% | +++ (activity was measured to be less than 1.0 μM)
CCOC(=O)N1CCC(CN2CCC3(CC2)CN(S(=O)(=O)c2c(C)noc2C)Cc2ccccc23)CC1 [compound 155] | 25 to 100% | +++ (activity was measured to be less than 1.0 μM) | 25 to 100% | +++ (activity was measured to be less than 1.0 μM)
